What was measured:
[1] = test system: oxazolone-induced colitis; assay: Mouse model of oxazolone-induced colitis; assay type: in vivo; conditions: 3 mg/kg (PO, BID)
Method: Oxazolone-induced colitis is an experimental model that has a histological resemblance to human ulcerative colitis (Heller et al. Immunology, 2002, 17, 629-638). Adult BALB/C mice from Harlan were used in the assay. On day 1, animals were lightly anesthetized with isoflurane and the hairs between the shoulder were carefully removed before oxazolone (4%, 150 μL, 4:1 acetone:olive oil formulation) or vehicle solution was slowly applied for skin sensitization. Seven days after skin sensitization, the mice were fasted around 6 hours prior, anesthetized with ketamine/xylazine injection, and a 1 mL syringe equipped with a 3.5-F catheter, filled with oxazolone solution, was inserted carefully about 4 cm into the colon of the mouse. Following insertion, 50 μL of the oxazolone solution (0.8% in 1:1 ethanol:water formulation) was injected very slowly (over 30 sec using an injection pump) into the colon. Drug treatment (PO, QD or BID or TID) or vehicle was initiated a day prior to the oxazolone intrarectal (IR) challenge. Two-day post oxazolone intrarectal challenge, the disease was assessed by treatment-blinded experimenters for each mouse according to the criteria score: stool consistency score (0, normal; 2, loose; 4, diarrhea), gross bleeding score (0, absence; 2, blood tinged; 4, presence); Combined stool score endpoint=stool consistency score+stool blood score.
Select compounds were tested in the assay.

JAK3 = target: T1, JAK3 (Homo sapiens, UniProt P52333); assay: Co-crystal structures bound to human JAK3; conditions: ATP binding site of human JAK3
T1 sequence (P52333 1-1124): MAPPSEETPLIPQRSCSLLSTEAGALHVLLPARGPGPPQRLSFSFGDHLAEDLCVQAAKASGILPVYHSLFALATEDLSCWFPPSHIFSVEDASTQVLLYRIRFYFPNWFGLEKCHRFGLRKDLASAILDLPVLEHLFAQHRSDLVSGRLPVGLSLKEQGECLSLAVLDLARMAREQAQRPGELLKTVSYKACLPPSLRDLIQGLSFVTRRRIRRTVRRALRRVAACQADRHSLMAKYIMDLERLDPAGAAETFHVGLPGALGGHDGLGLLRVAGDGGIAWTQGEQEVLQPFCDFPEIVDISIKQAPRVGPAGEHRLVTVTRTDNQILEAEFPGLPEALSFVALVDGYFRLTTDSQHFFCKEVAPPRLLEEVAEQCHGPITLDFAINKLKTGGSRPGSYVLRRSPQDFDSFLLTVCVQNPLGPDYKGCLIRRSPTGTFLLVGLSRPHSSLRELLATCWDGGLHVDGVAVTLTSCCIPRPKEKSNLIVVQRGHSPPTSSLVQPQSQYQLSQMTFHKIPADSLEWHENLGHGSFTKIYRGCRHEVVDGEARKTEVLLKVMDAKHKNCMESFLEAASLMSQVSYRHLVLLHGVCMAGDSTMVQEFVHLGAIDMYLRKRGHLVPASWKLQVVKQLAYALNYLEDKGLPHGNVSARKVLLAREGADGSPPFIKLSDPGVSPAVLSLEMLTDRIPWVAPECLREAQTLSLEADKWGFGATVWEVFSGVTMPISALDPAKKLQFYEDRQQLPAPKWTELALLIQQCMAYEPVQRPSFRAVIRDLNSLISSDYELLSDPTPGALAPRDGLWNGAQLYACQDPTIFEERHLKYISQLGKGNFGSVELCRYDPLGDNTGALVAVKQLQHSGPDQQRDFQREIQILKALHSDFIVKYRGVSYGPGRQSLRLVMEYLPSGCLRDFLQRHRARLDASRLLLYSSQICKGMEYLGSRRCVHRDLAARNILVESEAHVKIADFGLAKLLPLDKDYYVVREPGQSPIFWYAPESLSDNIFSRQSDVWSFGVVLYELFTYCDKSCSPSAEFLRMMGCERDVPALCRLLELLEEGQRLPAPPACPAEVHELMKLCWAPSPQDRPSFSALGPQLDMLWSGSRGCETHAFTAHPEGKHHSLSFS
Text: Co-crystal structures were obtained for compounds 1, 3 and 4 each bound to human JAK3. The resolutions for the complex structures were at 2.73 Å, 2.80 Å, and 2.64 Å respectively for compound 1, compound 3 and compound 4. […] Based on a distance of less than 3.5 Å of the donor and acceptor atoms four specific hydrogen bonds were identified for each of the ligands, namely to the main chain atoms of Glu903, Leu905 and Phe968 as well as the side chain atoms of Glu871. An additional hydrogen bond was identified for compound 1 to the side chain atoms of Asp 912. […] The S—H moiety of the cysteine residue performs an addition reaction to the Michael system. The observed results of the covalent binding interaction in the crystal structures confirms the irreversible binding nature for each of these ligands to JAK3.

[2] = test system: IL-2 stimulated pSTAT5 in CD4+ T cells; assay: Inhibition of IL-2 stimulated pSTAT5 in CD4+ T cells isolated from murine splenocytes; assay type: cell-based; conditions: Mus musculus, AlphaLisa, read-out: pIC50, inhibition of IL-2 stimulated pSTAT5 (converted)
Method: The potency of test compounds for inhibition of interleukin-2 (IL-2) stimulated STAT5 phosphorylation was measured in the CD4+ T cells isolated from murine splenocytes using AlphaLisa. Because IL-2 signals through JAK3, this assay provides a measure of JAK3 cellular potency in mouse.
Phosphorylated STAT5 was measured via the AlphaLISA SureFire Ultra pSTAT5 (Tyr694/699) kit (PerkinElmer).
CD4+ T cells were isolated from murine splenocytes via negative selection on a magnetic column (Miltnyi Biotec) and re-suspended in assay media (phenol red-free DMEM (Life Technologies) supplemented with 10% FBS (ATCC)). Cells were seeded at 50,000 cells/well in assay media (2 μL/well). Compounds were serially diluted in DMSO and diluted to 2× final concentration in assay media. Compound was added (4 μl/well) and the cells incubated at 37° C., 5% CO2 for 1 hour, followed by the addition of IL-2 (R&D Systems; final concentration 7 ng/ml) in pre-warmed assay media (2 μL) for 30 minutes. After cytokine stimulation, cells were lysed with 2 μl of 5× AlphaLisa Lysis Buffer (PerkinElmer). The lysate was shaken at 900 rpm for 10 minutes at room temperature (RT). Phosphorylated STAT5 was measured via the pSTAT5 AlphaLisa kit (PerkinElmer). Freshly prepared acceptor bead mixture was dispensed onto lysate (5 ul) under green filtered <100 lux light. Plates were shaken at 900 rpm for 2 mins, briefly spun down, and incubated for 2 hrs at RT in the dark. Donor beads were dispensed (5 μl) under green filtered <100 lux light. Plates were shaken at 900 rpm for 2 mins, briefly spun down, and incubated overnight at RT in the dark. Luminescence was measured with excitation at 689 nm and emission at 570 nm using an EnVision plate reader (PerkinElmer) under green filtered <100 lux light.
To determine the inhibitory potency of test compounds in response to IL-2, the average emission intensity of beads bound to pSTAT5 was measured in primary CD4+ T cells isolated from murine splenocytes. IC50 values were determined from analysis of the inhibition curves of signal intensity vs compound concentration. Data are expressed as pIC50 (negative decadic logarithm IC50) values (mean±standard deviation).

| SMILES | combined stool score endpoint as compared with vehicle treated animals [1] | binding mode in co-crystal structure (JAK3) | IC50 [2] [µM] |
| --- | --- | --- | --- |
| CN(C)C/C=C/C(=O)N1CC(COc2cc(-c3ccc(O)cc3)cc3[nH]ncc23)C1 [Compound 1, (E)-4-(dimethylamino)-1-(3-(((6-(4-hydroxyphenyl)-1H-indazol-4-yl)oxy)methyl)azetidin-1-yl)but-2-en-1-one] | statistically significant decrease | covalently bound to Cys909 of JAK3 |  |
| CN(C)C/C=C/C(=O)N1CC(COc2cc(-c3ccc(O)c(F)c3)cc3[nH]ncc23)C1 [Compound 5, (E)-4-(dimethylamino)-1-(3-(((6-(3-fluoro-4-hydroxyphenyl)-1H-indazol-4-yl)oxy)methyl)azetidin-1-yl)but-2-en-1-one] | statistically significant decrease |  |  |
| C=CC(=O)N1CC[C@H](COc2cc(-c3ccc(O)cc3)cc3[nH]ncc23)C1 [Compound 7, (S)-1-(3-(((6-(4-hydroxyphenyl)-1H-indazol-4-yl)oxy)methyl)pyrrolidin-1-yl)prop-2-en-1-one] | statistically significant decrease |  |  |
| C=CC(=O)N1CC(CC)(COc2cc(-c3ccc(O)cc3)nc3[nH]ncc23)C1 [Compound 22, 1-(3-ethyl-3-(((6-(4-hydroxyphenyl)-1H-pyrazolo[3,4-b]pyridin-4-yl)oxy)methyl)azetidin-1-yl)prop-2-en-1-one] |  |  | < 1 |
| C=CC(=O)N1CC(C)(COc2nc(-c3ccc(O)c(F)c3)nc3[nH]ncc23)C1 [Compound 21, 1-(3-(((6-(3-fluoro-4-hydroxyphenyl)-1H-pyrazolo[3,4-d]pyrimidin-4-yl)oxy)methyl)-3-methylazetidin-1-yl)prop-2-en-1-one] | statistically significant decrease |  | < 1 |
| C=CC(=O)N1CCO[C@@H](C(=O)Nc2cc(-c3ccc(O)cc3)cc3[nH]ncc23)C1 [Compound 6, (R)-4-acryloyl-N-(6-(4-hydroxyphenyl)-1H-indazol-4-yl)morpholine-2-carboxamide] | statistically significant decrease |  |  |
| C=CC(=O)N1CC(C(C)(C)Oc2cc(-c3ccc(O)cc3)nc3[nH]ncc23)C1 [Compound 20, 1-(3-(2-((6-(4-hydroxyphenyl)-1H-pyrazolo[3,4-b]pyridin-4-yl)oxy)propan-2-yl)azetidin-1-yl)prop-2-en-1-one] |  |  | < 1 |
| CN(C)C/C=C/C(=O)N1CC(C#N)(COc2cc(-c3ccc(O)c(F)c3)cc3[nH]ncc23)C1 [Compound 8, (E)-1-(4-(dimethylamino)but-2-enoyl)-3-(((6-(3-fluoro-4-hydroxyphenyl)-1Hindazol-4-yl)oxy)methyl)azetidine-3-carbonitrile] | statistically significant decrease |  |  |
| C=CC(=O)N1CC[C@H](Oc2cc(-c3ccc(O)c(Cl)c3)cc3[nH]ncc23)C1 [Compound 2, (S)-1-(3-((6-(3-chloro-4-hydroxyphenyl)-1H-indazol-4-yl)oxy)pyrrolidin-1-yl)prop-2-en-1-one] | statistically significant decrease |  |  |
| CN(C)C/C=C/C(=O)N1CC(C(C)(C)Oc2cc(-c3ccc(O)c(Cl)c3)cc3[nH]ncc23)C1 [Compound 3, (E)-1-(3-(2-((6-(3-chloro-4-hydroxyphenyl)-1H-indazol-4-yl)oxy)propan-2-yl)azetidin-1-yl)-4-(dimethylamino)but-2-en-1-one] | statistically significant decrease | covalently bound to Cys909 of JAK3 |  |
| C=CC(=O)N1CC(COc2nc(-c3ccc(O)cc3)nc3[nH]ncc23)C1 [Compound 4, 1-(3-(((6-(4-hydroxyphenyl)-1H-pyrazolo[3,4-d]pyrimidin-4-yl)oxy)methyl)azetidin-1-yl)prop-2-en-1-one] | statistically significant decrease | covalently bound to Cys909 of JAK3 |  |

Source: US10392368B2, “Pyrazolo and triazolo bicyclic compounds as JAK kinase inhibitors” (THERAVANCE BIOPHARMA R&D IP, LLC, priority 2017, dated 2019)
